GI50 and EC50 data for 13 compounds are collected here from patent publication US20240391931A1 (Bristol-Myers Squibb Company, priority 2021, published 2024).

Counter-ions that a name gives are not always drawn. Like-named read-outs stand apart in the source and are kept apart here. Bounds are passed on as bounds.

One test relates to Ba/F3 HER2YVMA cells. Put plainly: Cellular proliferation in Ba/F3 HER2YVMA cells. The format is cell-based, murine. To be noted: Mus musculus, BaF3, read-out: Ba/F3 YVMA GI50. The procedure: (§1) Engineered lines expressing HER2YVMA and HER2 WT were prepared in HEK293 (human embryonic kidney cells), Ba/F3 (Interleukin 3 (IL3)-dependent murine pro B cell line), and BEAS2B (primary immortalized human bronchial epithelial cell line). Ba/F3, BEAS2B, and HEK293 cells were obtained from the American Type Culture Collection (ATCC, Manassas, VA). Parental Ba/F3 cells were grown in suspension in complete RPMI 1640 supplemented with 10% FBS and 1% P/S and 10 ng/ml interleukin 3 (IL3, Sigma-Aldrich). Hek293 and BEAS2B cells were grown as monolayers in DMEM supplemented with 10% FBS and 1% P/S. All cells were maintained and propagated in a humidified 5% CO2 incubator at 37° C.
To generate Ba/F3, BEAS2B, and Hek-293 cells engineered with lentivirus to express HER2 WT or HER2YVMA, the cells were transduced with lentiviruses at multiplicity of infection (MOI) of 1 or 10; transduced cells were selected and maintained with G418 ([…]) (Geneticin, Life Technologies, Carlsbad, CA). Ba/F3 engineered cells were subjected to gradual withdrawal of interleukin 3 (IL-3, Sigma-Aldrich). After selection, IL3 independent Ba/F3 HER2YVMA, and BEAS2B HER2YVMA cells were cloned by limiting dilution. Hek293 HER2YVMA cells were used as pool. HER2 and phospho HER2 levels were confirmed by flow cytometery and immunoassay (MSD, Meso-Scale Discovery, Rockville, Maryland).
(§2) Cell proliferation in non-adherent cells was investigated in Ba/F3 parental (IL3-dependent) and in the two IL3 independent cell clones tranduced to express mutant HER2 protein containing the YVMA insertion (Ba/F3 HER2YVMA). Cells were plated in DMEM supplemented with 10% FBS, 1% P/S, and 10 ng/ml IL3 (for parental Ba/F3 only) in 96-well white clear-bottom tissue culture plates (Costar, Sigma-Aldrich) at a starting cell density of 7500 cells. An 8-point standard curve with varying cell densities (starting at 100,000 cells and serially diluting down 2-fold) was prepared for each cell line and read after plating. Compound solutions were prepared in serum free media, and cells were treated as described above for adherent cells. Cell viability was determined by CellTiter Glo (Promega, Madison, WI) after 72 h. The results were converted to cell numbers using a standard curve; growth inhibition (GI50 values) were determined by Graph Pad Prism.
(§3) The results of these experiments show the ability of compounds to inhibit cell growth in HER2 dependent cell lines and a control cell line (Ba/F3 parental) are depicted in Table 4 in the columns titled “G150 (nM)”. Ba/F3 parental results fall under the heading “Ba/F3 parental-G150”, and Ba/F3 HER2YVMA fall under the heading “Ba/F3 YVMA-G150”.

In the next test the test system is Ba/F3 parental cells. Description: Cellular proliferation in Ba/F3 parental (IL3-dependent) cells. The format is cell-based, murine. The conditions noted are these: Mus musculus, BaF3. The protocol:
as §1, §2, §3

A further test addresses EGFR (Homo sapiens, UniProt P00533). Put plainly: EGFR occupancy in N87 cells. Type of test: cell-based. Also on record: endogenous in cells; host or cells: N87. The protocol:
In order to assess free EGFR protein, a biotinylated probe was utilized as described for HER2 occupancy. N87 cells were plated, treated, and lysed as described for HER2 occupancy method. After treatment, the cells were washed three times with cold PBS, lysed at room temperature for 1 hr in modified occupancy lysis buffer (prepared as described in section titled “HER2 Occupancy Assay”). Lysates were stored at −70° C. until further analysis. For determination of % occupancy, lysates were loaded into duplicate plates of the phospho (Tyr 1068)/total EGFR whole cell lysate kit (Meso-Scale Discovery) and incubated overnight. Plates were washed and incubated with either EGFR-sulfoTag (1:50, Meso Scale Discovery) or Strep-Sulfo Tag (1:1000, Meso Scale Discovery), for detection of free and total EGFR, respectively. BSA control spots included in MSD plates were used to subtract non-specific signal. A standard curve of untreated cells in serial dilution was included in each plate to convert streptavidin and total EGFR MSD signals into free EGFR and total EGFR. Free EGFR was normalized to total EGFR for each sample. Data, reported as % […] control, was fitted using a sigmoidal curve analysis program (Graph Pad Prism version 6) with variable Hill slope to determine EC50 values. The results are provided in Table 4, under column titled “N87-EGFR Occ”. EGFR Occ is the concentration of test compound at which 50% of EGFR is irreversible bound.

The target of the next test is T1, HER2 (Homo sapiens, UniProt P04626).
T1 construct: BT474 and N87 cell lines which endogenously overexpress the HER2 wildtype (WT) protein; endogenous in cells; host or cells: BT474, N87
Description: HER2 occupancy assay in N87 cells. The format is cell-based. To be noted: concentration at which 50% of HER2 is irreversible bound, read-out: N87 HER2 Occ. The protocol:
In order to assess free HER2 protein, a biotinylated probe was utilized. BT474, N87, and Ba/F3-HER2YVMA cells were treated with test compound as described for HER2 signaling. After compound treatment, cells were washed three times with cold phosphate buffer saline (PBS, Life Technologies, Carlsbad, CA), and lysed in modified occupancy lysis buffer prepared with an irreversible biotinylated tool compound (1 μM) in 25 mM Tris pH 7.5, 150 mM NaCl, 1% Triton, and supplemented with cOmplete, EDTA-free Protease inhibitor cocktail (Roche), Phosphatase Inhibitor Cocktails 2 and 3 (Sigma-Aldrich), and 1 mM PMSF (Sigma-Aldrich).
To determine % occupancy, lysates were loaded into duplicate plates of the phospho (Tyr1248)/total ErbB2 whole cell lysate MSD kit (Meso-Scale Discovery) and incubated overnight. Plates were washed and incubation with either HER2-sulfoTag (1:50, Meso Scale Discovery) or Strep-Sulfo Tag (1:1000, Meso Scale Discovery), for detection of […]. A standard curve of untreated cells in serial dilution was included in each plate to independently fit streptavidin (Free HER2) and total HER2 MSD signals; non-specific signal (BSA control spots) was subtracted from each well. Free HER2 was then normalized by total HER2 for each sample. The results are reported as % DMSO control. The normalized data was fitted using a sigmoidal curve analysis program (Graph Pad Prism version 6) with variable Hill slope to determine EC50 values. The results are provided in Table 4, under columns titled “BT474-HER2 Occ”, “N87-HER2 Occ”, and “Ba/F3 YVMA-HER2 Occ”. HER2 Occ is the concentration of test compound at which 50% of HER2 is irreversible bound.

Where [1] appears, read: N87 cells, concentration at which 50% of EGFR is irreversible bound, read-out: N87 EGFR Occ.

Chain of EGFR (P00533 25-1210): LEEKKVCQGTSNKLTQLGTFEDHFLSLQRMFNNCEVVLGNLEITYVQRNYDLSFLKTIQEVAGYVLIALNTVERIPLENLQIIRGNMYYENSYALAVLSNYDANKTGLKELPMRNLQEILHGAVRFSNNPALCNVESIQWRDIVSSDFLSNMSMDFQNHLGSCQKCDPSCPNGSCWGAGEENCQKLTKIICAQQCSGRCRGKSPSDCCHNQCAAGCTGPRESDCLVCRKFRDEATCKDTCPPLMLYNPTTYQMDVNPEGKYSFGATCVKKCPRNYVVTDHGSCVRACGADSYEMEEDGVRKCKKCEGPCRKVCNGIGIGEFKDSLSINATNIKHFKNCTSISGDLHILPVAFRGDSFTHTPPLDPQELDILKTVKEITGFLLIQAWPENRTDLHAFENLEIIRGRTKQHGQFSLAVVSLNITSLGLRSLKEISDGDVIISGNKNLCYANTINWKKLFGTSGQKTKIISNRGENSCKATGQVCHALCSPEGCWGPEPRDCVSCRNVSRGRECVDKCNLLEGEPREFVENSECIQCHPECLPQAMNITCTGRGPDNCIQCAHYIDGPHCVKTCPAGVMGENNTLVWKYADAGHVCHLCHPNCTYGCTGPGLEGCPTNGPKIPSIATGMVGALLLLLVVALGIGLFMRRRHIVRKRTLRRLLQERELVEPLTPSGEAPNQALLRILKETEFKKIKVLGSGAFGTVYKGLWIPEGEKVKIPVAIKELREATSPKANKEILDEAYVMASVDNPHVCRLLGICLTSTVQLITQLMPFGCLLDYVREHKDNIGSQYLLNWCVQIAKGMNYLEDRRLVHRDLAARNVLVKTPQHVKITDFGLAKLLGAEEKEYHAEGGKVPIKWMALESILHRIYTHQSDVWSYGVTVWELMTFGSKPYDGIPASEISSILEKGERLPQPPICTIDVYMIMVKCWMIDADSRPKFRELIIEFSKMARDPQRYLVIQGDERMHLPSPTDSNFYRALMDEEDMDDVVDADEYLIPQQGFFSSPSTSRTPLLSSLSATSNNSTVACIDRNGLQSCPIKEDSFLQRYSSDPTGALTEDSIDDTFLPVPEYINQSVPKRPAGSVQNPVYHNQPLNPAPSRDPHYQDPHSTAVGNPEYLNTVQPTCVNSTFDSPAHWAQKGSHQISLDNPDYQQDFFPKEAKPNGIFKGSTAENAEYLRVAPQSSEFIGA
T1 sequence (P04626 23-1255): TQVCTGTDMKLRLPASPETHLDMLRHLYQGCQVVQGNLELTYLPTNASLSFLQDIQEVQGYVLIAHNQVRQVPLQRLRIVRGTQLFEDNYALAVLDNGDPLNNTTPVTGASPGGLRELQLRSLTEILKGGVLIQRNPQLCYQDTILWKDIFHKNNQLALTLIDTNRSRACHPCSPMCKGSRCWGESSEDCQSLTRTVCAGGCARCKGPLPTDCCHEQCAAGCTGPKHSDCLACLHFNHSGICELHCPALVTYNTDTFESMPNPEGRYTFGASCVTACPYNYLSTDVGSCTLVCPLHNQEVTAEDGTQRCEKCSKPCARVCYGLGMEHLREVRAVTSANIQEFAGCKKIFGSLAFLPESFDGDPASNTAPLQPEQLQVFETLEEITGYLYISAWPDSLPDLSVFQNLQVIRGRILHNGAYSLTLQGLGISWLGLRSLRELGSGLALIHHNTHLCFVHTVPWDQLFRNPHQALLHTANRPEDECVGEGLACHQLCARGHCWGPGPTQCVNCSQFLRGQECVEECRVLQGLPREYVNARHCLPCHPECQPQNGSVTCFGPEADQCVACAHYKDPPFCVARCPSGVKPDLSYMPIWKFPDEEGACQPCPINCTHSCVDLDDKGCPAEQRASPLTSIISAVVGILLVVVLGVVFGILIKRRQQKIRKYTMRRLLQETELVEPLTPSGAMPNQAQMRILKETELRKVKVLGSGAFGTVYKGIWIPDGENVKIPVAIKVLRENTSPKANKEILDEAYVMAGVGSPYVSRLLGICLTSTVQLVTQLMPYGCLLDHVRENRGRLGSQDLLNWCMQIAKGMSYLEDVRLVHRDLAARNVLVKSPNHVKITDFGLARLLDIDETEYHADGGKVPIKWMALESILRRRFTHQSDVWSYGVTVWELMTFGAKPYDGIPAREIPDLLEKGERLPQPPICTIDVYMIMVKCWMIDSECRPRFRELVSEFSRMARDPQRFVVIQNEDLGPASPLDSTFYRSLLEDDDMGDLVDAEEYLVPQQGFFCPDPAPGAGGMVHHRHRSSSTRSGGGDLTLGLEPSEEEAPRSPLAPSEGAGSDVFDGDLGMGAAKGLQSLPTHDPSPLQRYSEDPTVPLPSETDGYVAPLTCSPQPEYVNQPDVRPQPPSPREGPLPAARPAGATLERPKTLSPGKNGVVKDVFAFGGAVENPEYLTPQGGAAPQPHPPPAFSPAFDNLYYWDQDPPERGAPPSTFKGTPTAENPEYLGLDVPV

On to `Cc1ccc(Oc2ccc(Nc3ncnc4sc5c(c34)CN(C(=O)/C=C/CN(C)C)CC5)cc2C)cn1` [Compound 108, (E)-4-(Dimethylamino)-1-(4-((3-methyl-4-((6-methylpyridin-3-yl)oxy)phenyl)amino)-7,8-dihydropyrido[3′,4′:4,5]thieno[2,3-d]pyrimidin-6(5H)-yl)but-2-en-1-one], for which the GI50 in the test on Ba/F3 HER2YVMA cells is less than 100 nM; in the test on Ba/F3 parental cells, 1000 to 10000 nM.
The corresponding values for `Cc1cc(Nc2ncnc3sc4c(c23)CN(C(=O)/C=C/CN(C)C)C4)ccc1Oc1ccn2ncnc2c1` [Compound 130, (E)-1-(4-((4-([1,2,4]Triazolo[1,5-a]pyridin-7-yloxy)-3-methylphenyl)amino)-5H-pyrrolo[3′,4′:4,5]thieno[2,3-d]pyrimidin-6(7H)-yl)-4-(dimethylamino)but-2-en-1-one] are less than 100 nM and 1000 to 10000 nM.
As to `Cc1ccc(Oc2ccc(Nc3ncnc4sc5c(c34)CCN(C(=O)/C=C/CN3CC[C@H](F)C3)C5)cc2C)cn1` [Compound 124], the values for the GI50 in the test with Ba/F3 HER2YVMA cells and in the test on Ba/F3 parental cells were less than 100 nM and 1000 to 10000 nM, respectively.
Regarding `Cc1cc(Nc2ncnc3sc4c(c23)CCN(C(=O)/C=C/CN(C)C)C4)ccc1Oc1ccn2ccnc2c1` [Compound 126, (E)-4-(dimethylamino)-1-(4-((4-(imidazo[1,2-a]pyridin-7-yloxy)-3-methylphenyl)amino)-5,8-dihydropyrido[4′,3′:4,5]thieno[2,3-d]pyrimidin-7(6H)-yl)but-2-en-1-one], the GI50 is less than 100 nM in the test with Ba/F3 HER2YVMA cells and 1000 to 10000 nM in the test on Ba/F3 parental cells.
For `Cc1ccc(Oc2ccc(Nc3ncnc4sc5c(c34)CCN(C(=O)/C=C/CN3CC4CCC(C4)C3)C5)cc2C)cn1` [Compound 16, (E)-4-(3-azabicyclo[3.2.1]octan-3-yl)-1-(4-((3-methyl-4-((6-methylpyridin-3-yl)oxy)phenyl)amino)-5,8-dihydropyrido[4′,3′:4,5]thieno[2,3-d]pyrimidin-7(6H)-yl)but-2-en-1-one benzenesulfonate salt], the EC50 on EGFR is 100 to 350 nM; at HER2, less than 100 nM.
Take `Cc1ccc(Oc2ccc(Nc3ncnc4sc5c(c34)CCN(C(=O)/C=C/CN(C)C)C5)cc2C)cn1` [Compound 8, (E)-4-(Dimethylamino)-1-(4-((3-methyl-4-((6-methylpyridin-3-yl)oxy)phenyl)amino)-5,6-dihydropyrido[4′,3′:4,5]thieno[2,3-d]pyrimidin-7(8H)-yl)but-2-en-1-one]: the GI50 was less than 100 nM in the test with Ba/F3 HER2YVMA cells and 1000 to 10000 nM in the test on Ba/F3 parental cells. Moreover, the EC50 on EGFR (setting [1]) and on HER2 was less than 100 nM each time.
Turning to `COc1ccc(Oc2ccc(Nc3ncnc4sc5c(c34)CN(C(=O)/C=C/CN(C)C)C5)cc2C)cn1` [Compound 128, (E)-4-(dimethylamino)-1-(4-((4-((6-methoxypyridin-3-yl)oxy)-3-methylphenyl)amino)-5,7-dihydro-6H-pyrrolo[3′,4′:4,5]thieno[2,3-d]pyrimidin-6-yl)but-2-en-1-one], the results for the GI50 in the test on Ba/F3 HER2YVMA cells and in the test with Ba/F3 parental cells were less than 100 nM and 1000 to 10000 nM, respectively. Also, the values for the EC50 on EGFR (setting [1]) and at HER2 were greater than 1000 nM and less than 100 nM, respectively.
Consider `Cc1ccc(Oc2ccc(Nc3ncnc4sc5c(c34)CN(C(=O)/C=C/CN(C)C)C5)cc2Cl)cn1` [Compound 129, (E)-1-(4-((3-Chloro-4-((6-methylpyridin-3-yl)oxy)phenyl)amino)-5H-pyrrolo[3′,4′:4,5]thieno[2,3-d]pyrimidin-6(7H)-yl)-4-(dimethylamino)but-2-en-1-one], for which the GI50 with Ba/F3 HER2YVMA cells was less than 100 nM. For the same compound, the EC50 on EGFR (setting [1]) was 100 to 350 nM; on HER2, less than 100 nM.
In the case of `Cc1ccc(Oc2ccc(Nc3ncnc4sc5c(c34)CCN(C(=O)/C=C/CN3CCOCC3)C5)cc2C)cn1` [Compound 17, (E)-1-(4-((3-Methyl-4-((6-methylpyridin-3-yl)oxy)phenyl)amino)-5,6-dihydropyrido[4′,3′:4,5]thieno[2,3-d]pyrimidin-7(8H)-yl)-4-morpholinobut-2-en-1-one], the EC50 was 100 to 350 nM on EGFR (setting [1]) and less than 100 nM on HER2.
For `Cc1nc2cc(Oc3ccc(Nc4ncnc5sc6c(c45)CCN(C(=O)/C=C/CN(C)C)C6)cc3C)ccn2n1` [Compound 127, (E)-4-(dimethylamino)-1-(4-((3-methyl-4-((2-methyl-[1,2,4]triazolo[1,5-a]pyridin-7-yl)oxy)phenyl)amino)-5,6-dihydropyrido[4′,3′:4,5]thieno[2,3-d]pyrimidin-7(8H)-yl)but-2-en-1-one], the GI50 with Ba/F3 HER2YVMA cells is 100 to 1000 nM; in the test on Ba/F3 parental cells, 1000 to 10000 nM.
Turning to `Cc1cc(Nc2ncnc3sc4c(c23)CCN(C(=O)/C=C/CN2CCOCC2)C4)ccc1Oc1ccc2ncnn2c1` [Compound 12], the EC50 at EGFR (setting [1]) was greater than 1000 nM; at HER2, less than 100 nM.
In the same order, the values of `Cc1ccc(Oc2ccc(Nc3ncnc4sc5c(c34)CCN(C(=O)/C=C/CN3CC4CC(C3)O4)C5)cc2C)cn1` [Compound 15] are less than 100 nM and less than 100 nM.
For `Cc1ccc(Oc2ccc(Nc3ncnc4sc5c(c34)CCN(C(=O)/C=C/CN3CC4CCC3C4)C5)cc2C)cn1` (stereo not shown) [Compound 14], the EC50 at EGFR (setting [1]) and at HER2 was less than 100 nM in each case.
